The source of these data is patent US6106744A, “Photochromic pyrano-fused naphthopyrans” (PPG Industries Ohio, Inc., priority 1997, dated 2000).

Data set [1] is described as follows: Photochromic response of test squares on an optical bench. As to conditions: for Bleach Rate T 1/2: time to one half the highest absorbance at room temperature (72° F., 22.2° C.) after removal of activating light; for Sensitivity ΔOD/min: first five (5) seconds of UV exposure, expressed per minute, 72° F. (22.2° C.), 0.15 to 0.20 mW/cm^2. The data set is classed as physicochemical. As to the method:
(§1) Testing was done with the photochromic compounds prepared in Examples 1, 2, 3 and 4 in the following manner. A quantity of each photochromic compound calculated to yield a 1.5×10^-3 molal solution was added to a flask containing 50 grams of a monomer blend of 4 parts ethoxylated bisphenol A dimethacrylate (BPA 2EO DMA), 1 part poly(ethylene glycol) 600 dimethacrylate, and 0.033 weight percent 2,2'-azobis(2-methyl propionitrile) (AIBN). Each photochromic compound was dissolved into the monomer blend by stirring and gentle heating. After a clear solution was obtained, it was poured into a flat sheet mold having the interior dimensions of 2.2 mm×6 inches (15.24 cm)×6 inches (15.24 cm). The mold was sealed and placed in a horizontal air flow, programmable oven programmed to increase the temperature from 40° C. to 95° C. over a 5 hour interval, hold the temperature at 95° C. for 3 hours, lower it to 60° C. over a 2 hour interval and then hold at 60° C. for 16 hours. After the mold was opened, the polymer sheet was cut using a diamond blade saw into 2 inch (5.1 centimeters) test squares.
The photochromic test squares prepared in Part A were tested for photochromic response on an optical bench. Prior to testing on the optical bench, the photochromic test squares were exposed to 365 nanometer ultraviolet light for about 15 minutes to activate the photochromic compounds and then placed in a 76° C. oven for about 15 minutes to bleach or inactivate the photochromic compounds. The test squares were then cooled to room temperature, exposed to fluorescent room lighting for at least 2 hours and then kept covered for at least 2 hours prior to testing on an optical bench maintained at 72° F. (22.2° C.). The bench was fitted with a 150 watt Xenon arc lamp, a remote controlled shutter, a copper sulfate bath acting as a heat sink for the arc lamp, a Schott WG-320 nm cut-off filter which removes short wavelength radiation; neutral density filter(s) and a sample holder in which the square to be tested was inserted. The power output of the optical bench, i.e., the dosage of light that the sample lens would be exposed to, was calibrated with a photochromic test square used as a reference standard. […] The UV-A detector was placed into the sample holder and the light output was measured. […]
A monitoring, collimated beam of light from a tungsten lamp was passed through the square at a small angle (approximately 30° ) normal to the square. After passing through the square, the light from the tungsten lamp was directed to a detector through Spectral Energy Corp. GM-200 monochromator set at the previously determined visible lambda max of the photochromic compound being measured. […]
Change in optical density (ΔOD) was determined by inserting a test square in the bleached state into the sample holder, adjusting the transmittance scale to 100% opening the shutter from the Xenon lamp to provide ultraviolet radiation to change the test square from the bleached state to an activated (i.e., darkened) state, measuring the transmittance in the activated state, and calculating the change in optical density according to the formula: ΔOD=log (100/%Ta), where %Ta is the percent transmittance in the activated state and the logarithm is to the base 10.
The Δ OD/Min, which represents the sensitivity of the photochromic compound's response to UV light, was measured over the first five (5) seconds of UV exposure, then expressed on a per minute basis. […]

Data set [2] can be described thus: lambda max (Vis) of activated form in test square polymerizates (Varian Cary 3 UV-Visible spectrophotometer). The format is physicochemical. To be noted: activated (colored) form in test square; BPA 2EO DMA / poly(ethylene glycol) 600 dimethacrylate polymer. As to the method:
as §1
The Δ OD/Min, which represents the sensitivity of the photochromic compound's response to UV light, was measured over the first five (5) seconds of UV exposure, then expressed on a per minute basis. The saturation optical density (Δ OD@ Saturation) was taken under identical conditions as the Δ OD/Min, except UV exposure was continued for 15 minutes. The lambda max (Vis) is the wavelength in nanometers (nm) in the visible spectrum at which the maximum absorption of the activated (colored) form of the photochromic compound in a test square occurs. The lambda max (Vis) wavelength was determined by testing the photochromic test square polymerizates of Part A in a Varian Cary 3 UV-Visible spectrophotometer. The Bleach Rate (T 1/2) is the time interval in seconds for the absorbance of the activated form of the photochromic compound in the test squares to reach one half the highest absorbance at room temperature (72° F., 22.2° C.) after removal of the source of activating light.

Take `Cc1ccc2c3c(c4c(=O)oc(C(c5ccccc5)c5ccccc5)cc4c2c1)C=CC(c1ccccc1)(c1ccccc1)O3` [Example 1, 2,2-diphenyl-7-diphenylmethyl-10-methyl-2,5-dihydro-5-oxo-pyrano[3',4':3,4]naphtho[1,2-b]pyran]: the “Bleach Rate T 1/2” value in data set [1] was determined as 0.833 min. In addition, the “lambda max (Vis)” value in data set [2] stood at 492 nanometers.
Turning to `COc1ccc(C2(c3ccc(OC)cc3)C=Cc3c4c(c5cc(C)ccc5c3O2)C=C(C(c2ccccc2)c2ccccc2)OC4)cc1` [Example 3, 2,2-di(4-methoxyphenyl)-7-diphenylmethyl-10-methyl-2,5-dihydro-pyrano[3',4':3,4]naphtho[1,2-b]pyran], in data set [1], the “Sensitivity ΔOD/min” value is 0.33 ΔOD/min and the “Bleach Rate T 1/2” value is 3.03 min. The “lambda max (Vis)” value in data set [2] is reported as 569 nanometers.
Consider `Cc1ccc2c3c(c4c(c2c1)C=C(C(c1ccccc1)c1ccccc1)OC4)C=CC(c1ccccc1)(c1ccc(N2CCOCC2)cc1)O3` (centres unmarked) [Example 4, 2-phenyl-2-(4-morpholinophenyl)-7-diphenylmethyl-10-methyl-2,5-dihydro-pyrano[3',4':3,4]naphtho[1,2-b]pyran], for which, in data set [1], the “Sensitivity ΔOD/min” value is recorded as 0.39 ΔOD/min and the “Bleach Rate T 1/2” value stood at 4.68 min. Moreover, the “lambda max (Vis)” value in data set [2] turned out to be 592 nanometers.
